{
  "source": "patent US11351218B2",
  "about": "“Composition for preventing or treating glioblastoma comprising Platycodon grandiflorum A. De Candolle, Scutellaria baicalensis, Phellodendron amurense Ruprecht or Rubus coreanus” (University-Industry Cooperation Group of Kyung Hee …, priority 2019, dated 2022)",
  "tested_on": "U87MG and U373MG cells",
  "experiment": "WST1 cell viability assay, GBM cells",
  "type": "cell-based, human",
  "procedure": "FIGS. 6A and 6B show the results that PD induces a decrease in cell viability and vacuole formation. […] Data shown represent the means of quintuplicate measurements which were repeated three times. The results are presented as a percentage of control (means±SD).\nCell cytotoxicity was assessed by WST1 assay. U87 and U373 cells were each seeded in a 96-well plate (5×10^3 cells/well) and treated with different concentrations of platycodin D (PD). Then, cells were incubated with a WST1 reagent (Dogen, Seoul, Korea) for 2 hours before reading the plate. Absorbance was measured at 450 nm using an ELISA reader (Versa Max, Molecular Devices, Sunnyvale, Calif., USA).",
  "data": [
    {"molecule": "C[C@@H]1O[C@@H](O[C@H]2[C@H](OC(=O)[C@]34CCC(C)(C)C[C@H]3C3=CC[C@@H]5[C@@]6(C)C[C@H](O)[C@H](O[C@@H]7O[C@H](CO)[C@@H](O)[C@H](O)[C@H]7O)C(CO)(CO)[C@@H]6CC[C@@]5(C)[C@]3(C)C[C@H]4O)OC[C@H](O)[C@@H]2O)[C@H](O)[C@H](O)[C@H]1O[C@@H]1OC[C@@H](O)[C@H](O[C@@H]2OC[C@](O)(CO)[C@H]2O)[C@H]1O", "note": "[PD, platycodin D]", "values": [
      {"measurement": "viability of GBM cells", "setting": "10 μM PD, 3 days", "value": "reduced the viability"},
      {"measurement": "percentage of viable cells", "setting": "PD 0-20 μM, 48 hours, dose-dependent", "value": "significantly decreased"},
      {"measurement": "cell viability", "setting": "PD 10 μM, 48 hours, GBM cells, percentage of control", "value": "approximately 60%"}
    ]}
  ]
}
